Several values for one entry are separate records, joined by “and”; a condition that tells them apart may be missing. Equal entries are not always repeated.
Tests used:
[1] = Weights and survival (Example 1, SCI-01); format: in vivo, Syrian Golden Hamsters
Method: All animals were weighed daily and their survival recorded, in order to assess possible differences in animal weight among treatment groups as an indication for mucositis severity and/or possible toxicity resulting from the treatments.
The mean daily percent weight change data was evaluated. The saline (PBS) treated control hamsters gained an average of 70.4% of their starting weight during the study. Hamsters in the group receiving SCV-07 at 1 ug/kg on days −1 to 16 gained an average of 68.4% of their starting weight during the study. Hamsters in the group receiving SCV-07 at 10 ug/kg on days −1 to 16 gained an average of 70.3% of their starting weight during the study. Hamsters in the group receiving SCV-07 at 100 ug/kg on days −1 to 16 gained an average of 82.0% of their starting weight during the study. The significance of these differences was evaluated by calculating the area-under-the-curve (AUC) for the weight gain of each animal, and then comparing the different treatment groups using a One-Way ANOVA test.

[2] = tested on: oral mucositis induced by fractionated radiation (eight doses of 7.5 Gy, left buccal cheek pouch); assay: Oral mucositis induced by fractionated radiation in hamsters, mucositis scoring (Example 3, SCI-03); format: in vivo, Syrian Golden Hamsters; parameters: key: 0: Pouch completely healthy. No erythema or vasodilation.; 1: Light to severe erythema and vasodilation. No erosion of mucosa.; 2: Severe erythema and vasodilation. Erosion of superficial aspects of mucosa leaving denuded areas. Decreased stippling of mucosa.; 3: Formation of off-white ulcers in one or more places. Ulcers may have a yellow/gray due to pseudomembrane. Cumulative size of ulcers should equal about ¼ of the pouch. Severe erythema and vasodilation.; 4: Cumulative seize of ulcers should equal about ½ of the pouch. Loss of pliability. Severe erythema and vasodilation.; 5: Virtually all of pouch is ulcerated. Loss of pliability (pouch can only partially be extracted from mouth)
Text: The fractionated radiation model in hamsters, developed by the Principal Investigator, has proven to be an accurate, efficient and cost-effective technique to provide a preliminary evaluation of anti-mucositis compounds. In this model, hamsters receive 8 doses of 7.5 Gy to the left cheek pouch on days 0, 1, 2, 3, […], rather than the single dose of 40 Gy on day 0 that is used in acute radiation studies. The rationale for using this scheduling for the radiation is that it more closely resembles the clinical courses of radiotherapy given to cancer patients. The course of mucositis in this model is well defined and results in peak mucositis scores approximately 14-16 days following radiation. Mortality (generally from the side effects of anesthesia) in the fractionated radiation model is slightly higher than that seen in the acute radiation model and group sizes are increased (to 10 per group) to allow for this.
(§1) Forty (40) male Syrian Golden Hamsters were given eight doses of radiation of 7.5 Gy each directed to their left buccal cheek pouch on days 0, 1, 2, 3, 6, 7, 8 and 9. This was accomplished by anesthetizing the animals and everting the left buccal pouch, while protecting the rest of the animal's bodies with a lead shield. Test materials were given by sub-cutaneous injection once daily as detailed in Table 9. Mucositis was evaluated clinically starting on day 7, and continuing on alternate days until day 35. Test articles were given as outlined Table 9, Groups 1 and 2 were dosed from Day −1 to Day 29, Group 3 was dosed on the days of radiation only, Group 4 was dosed on the days between Day −15 and Day 29 on which no radiation is given (Day −1, Day 4, Day 5 and Day 10 to Day 29).
The effect on mucositis of each drug treatment compared to placebo was assessed according to the following parameters:
On each evaluation day, the number of animals with a blinded mucositis score of ≧3 in each drug treatment group was compared to the control group. Differences were compared on a cumulative basis and statistical significance was determined by chi-square analysis. Efficacy, in this analysis, is defined by a significant reduction in the number of days that a group of animals had ulcerations (scores ≧3) when compared to the control group.
For each evaluation day the scores of the control group were compared to those of the treated groups using non-parametric rank sum analysis. Treatment success was considered as a statistically significant lowering of scores in the treated group on 2 or more days from day 6 to day 28.
as §1, with “daily at 8:00 am” for “daily”, “9. […]” for “9. Mucositis was evaluated clinically starting on day 7, and continuing on alternate days until day 35.”, “2 was” for “2 were”, “radiation only (days 0-3 and days 6-10),” for “radiation only,”, “Day −1” for “Day −15”, “Day 4 to” for “Day 4,”
Radiation was generated with a Philips 160 kVp (kilovolt potential) (18.75-ma) X-ray source at a focal distance of 30 cm, with a 3.0 mm hardened Al filtration system. Irradiation was targeted to the left buccal pouch mucosa at a rate of 3.32 Gy/minute. […] Using this calibration, the energy received by each animal at each radiation dose was approximately 64.5 nC (nanoCoulombs) at each time point. Prior to irradiation, animals were anesthetized with an intraperitoneal injection of ketamine (160 mg/kg) and xylazine (8 mg/kg). The left buccal pouch was everted, fixed and isolated using a lead shield.
The mucositis score, weight change and survival were measured throughout the study as described above. […]

In the case of `N[C@H](CCC(=O)N[C@@H](Cc1c[nH]c2ccccc12)C(=O)O)C(=O)O` [SCV-07, γ-D-glutamyl-L-tryptophan], the “average weight gain, % of starting weight during the study” value (shortened to “average weight gain, %”) ([1]; 1 ug/kg on days -1 to 16) is reported as 68.4%, the “average weight gain, %” value ([1]; 10 ug/kg on days -1 to 16) is reported as 70.3% and the “average weight gain, %” value ([1]; 100 ug/kg on days -1 to 16) is reported as 82.0%. For the same molecule, the Mucositis score ([2]; Group 2, day 7, individual animals (two score lines each)) was 0, the Mucositis score ([2]; Group 2, day 9, individual animals (two score lines each)) was 1 (5×) and 0 (2×) and the Mucositis score ([2]; Group 2, day 11, individual animals (two score lines each)) was 1. It also gave a Mucositis score ([2]; Group 2, day 13, individual animals (two score lines each)) of 3, a Mucositis score ([2]; Group 2, day 15, individual animals (two score lines each)) of 3 and a Mucositis score ([2]; Group 2, day 17, individual animals (two score lines each)) of 3. The Mucositis score ([2]; Group 2, day 21, individual animals (two score lines each)) was 3, the Mucositis score ([2]; Group 2, day 23, individual animals (two score lines each)) was 3 and the Mucositis score ([2]; Group 2, day 25, individual animals (two score lines each)) was 3. The Mucositis score ([2]; Group 2, day 27, individual animals (two score lines each)) was 3, the Mucositis score ([2]; Group 2, day 31, individual animals (two score lines each)) was 0 (2×) and 1 (3×) and the Mucositis score ([2]; Group 2, day 33, individual animals (two score lines each)) was 1. For the same molecule, the Mucositis score ([2]; Group 2, day 35, individual animals (two score lines each)) was 1 (3×) and 0 (4×).
